In patent US8569292B2, “Cyclic inhibitors of 11β-hydroxysteroid dehydrogenase 1” (Vitae Pharmaceuticals, Inc., priority 2008, dated 2013):

How the values were obtained:
11β-HSD1 [1] = molecular target: T1, 11β-HSD1 (Homo sapiens, UniProt P28845); experiment: biochemical; settings: for inhibition at 0.1 µM: read-out: Average % inhibition at 100 nM
CYP2C9 [2] = molecular target: T2, CYP2C9 (Homo sapiens, UniProt P11712); experiment: Biological Test Example 9: CYP2C9 inhibition (Invitrogen kit, fluorogenic OOMR); type: in vitro ADME
T2 construct: purchased Invitrogen 2859; host or cells: insect cells infected with baculovirus (microsomes)
T2 sequence (P11712 whole entry): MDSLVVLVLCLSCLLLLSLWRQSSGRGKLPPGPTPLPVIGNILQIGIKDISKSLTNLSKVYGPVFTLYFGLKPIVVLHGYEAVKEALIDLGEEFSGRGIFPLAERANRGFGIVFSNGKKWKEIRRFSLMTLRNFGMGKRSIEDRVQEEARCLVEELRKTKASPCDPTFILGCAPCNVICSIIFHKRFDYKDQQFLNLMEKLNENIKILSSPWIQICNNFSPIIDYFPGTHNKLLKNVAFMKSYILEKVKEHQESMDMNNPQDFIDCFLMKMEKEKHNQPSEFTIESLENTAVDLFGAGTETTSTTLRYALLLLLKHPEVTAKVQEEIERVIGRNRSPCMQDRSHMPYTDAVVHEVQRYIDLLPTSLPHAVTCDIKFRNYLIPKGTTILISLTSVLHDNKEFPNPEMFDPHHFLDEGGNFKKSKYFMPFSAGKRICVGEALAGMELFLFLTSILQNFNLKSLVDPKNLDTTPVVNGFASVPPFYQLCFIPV

11β-HSD1 [3] = molecular target: T1, 11β-HSD1; experiment: Biological Test Example 4: microsomal 11β-HSD1 in the presence of 50% human plasma; settings: for Shift: IC50 in Test Example 4 divided by IC50 in Test Example 1
CYP2C9 [4] = molecular target: T2, CYP2C9; experiment: Biological Test Example 7: CYP2C9 inhibition (naproxen O-demethylation); type: in vitro ADME
CYP3A4 = CYP3A4 (Homo sapiens, UniProt P08684); experiment: Biological Test Example 6: CYP3A4 inhibition (erythromycin N-demethylation); type: in vitro ADME
Chain of CYP3A4 (P08684 whole entry): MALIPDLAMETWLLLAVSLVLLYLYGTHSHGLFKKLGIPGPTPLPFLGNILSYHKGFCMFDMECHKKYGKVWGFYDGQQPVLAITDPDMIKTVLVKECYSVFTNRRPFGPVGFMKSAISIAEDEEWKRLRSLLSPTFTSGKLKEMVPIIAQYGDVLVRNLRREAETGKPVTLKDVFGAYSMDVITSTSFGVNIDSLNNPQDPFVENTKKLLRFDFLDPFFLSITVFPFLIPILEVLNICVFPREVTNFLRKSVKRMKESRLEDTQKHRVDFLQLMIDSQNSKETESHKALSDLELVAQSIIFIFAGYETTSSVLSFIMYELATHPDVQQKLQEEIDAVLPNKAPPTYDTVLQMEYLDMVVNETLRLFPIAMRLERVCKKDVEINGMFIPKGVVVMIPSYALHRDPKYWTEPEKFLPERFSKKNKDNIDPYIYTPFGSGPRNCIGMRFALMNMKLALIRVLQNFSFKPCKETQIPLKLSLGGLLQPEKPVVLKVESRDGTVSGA

[5] = Biological Test Example 1 IC50 (nM)
[6] = IC50 Range, Biological Test Example 1

T1 sequence (P28845 whole entry): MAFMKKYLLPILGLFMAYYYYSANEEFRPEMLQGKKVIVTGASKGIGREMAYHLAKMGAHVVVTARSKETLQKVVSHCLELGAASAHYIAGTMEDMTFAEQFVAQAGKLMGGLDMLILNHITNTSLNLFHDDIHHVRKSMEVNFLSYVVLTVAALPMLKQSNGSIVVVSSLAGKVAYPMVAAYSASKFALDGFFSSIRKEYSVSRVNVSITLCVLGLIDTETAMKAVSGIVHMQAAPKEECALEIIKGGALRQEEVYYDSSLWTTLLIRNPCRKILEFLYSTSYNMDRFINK

## Cc1cc(-c2ccc([C@H](C)N3CC[C@@](C)(c4ccc(F)cc4)OC3=O)cc2)ccn1 (single isomer, unassigned) [EXAMPLE 107.1]
11β-HSD1 [1]; [5]
  IC50: 3.2 nM
11β-HSD1 [1]; [6]
  IC50: < 100 nM
11β-HSD1 [1]
  inhibition at 0.1 µM: 95.5%
CYP2C9 [2]
  IC50: 2700 nM
11β-HSD1 [3]
  IC50: 86.4 nM
  Shift: 26.9

## Cc1cc(-c2ccc([C@H](C)N3CC[C@](C)(c4ccc(F)cc4)OC3=O)cc2)ccn1 (single isomer, unassigned) [EXAMPLE 107.2]
11β-HSD1 [1]; [5]
  IC50: 3.2 nM
11β-HSD1 [1]; [6]
  IC50: < 100 nM
11β-HSD1 [1]
  inhibition at 0.1 µM: 93.6%
CYP2C9 [2]
  IC50: 17500 nM
11β-HSD1 [3]
  IC50: 269 nM
  Shift: 83.8

## Cc1nc(-c2ccc([C@H](C)N3CC[C@](CC(C)(C)O)(c4ccccc4)OC3=O)cc2)ccc1C#N [EXAMPLE 1, 6-(4-((S)-1-((S)-6-(2-hydroxy-2-methylpropyl)-2-oxo-6-phenyl-1,3-oxazinan-3-yl)ethyl)phenyl)-2-methylnicotinonitrile]
CYP2C9 [4]
  IC50: 12900 nM
11β-HSD1 [1]; [5]
  IC50: 0.7 nM
11β-HSD1 [1]; [6]
  IC50: < 100 nM
11β-HSD1 [1]
  inhibition at 0.1 µM: 96.4%
CYP3A4
  IC50: 16700 nM
11β-HSD1 [3]
  IC50: 7.3 nM

## C[C@@H](c1ccc(-c2ccc(C(C)(C)O)nn2)cc1)N1CC[C@](CC(C)(C)O)(c2ccccc2)OC1=O [EXAMPLE 7, (S)-6-(2-hydroxy-2-methylpropyl)-3-((S)-1-(4-(6-(2-hydroxypropan-2-yl)pyridazin-3-yl)phenyl)ethyl)-6-phenyl-1,3-oxazinan-2-one]
11β-HSD1 [1]; [5]
  IC50: 4.9 nM
11β-HSD1 [1]; [6]
  IC50: < 100 nM
11β-HSD1 [1]
  inhibition at 0.1 µM: 93.3%
CYP2C9 [2]
  IC50: 5300 nM
11β-HSD1 [3]
  IC50: 4.3 nM
  Shift: 0.9

## Cc1ccc(-c2ccc([C@H](C)N3CC[C@](CCc4nnc(C)o4)(c4ccccc4)OC3=O)cc2)nn1 [EXAMPLE 12, (R)-6-(2-(5-methyl-1,3,4-oxadiazol-2-yl)ethyl)-3-((S)-1-(4-(6-methylpyridazin-3-yl)phenyl)ethyl)-6-phenyl-1,3-oxazinan-2-one]
CYP2C9 [2]
  IC50: 4000 nM

## C[C@@H](c1ccc(-c2cnc(-n3ccnc3)nc2)cc1)N1CC[C@](CC(C)(C)O)(c2ccccc2)OC1=O [EXAMPLE 14, (S)-3-((S)-1-(4-(2-(1H-imidazol-1-yl)pyrimidin-5-yl)phenyl)ethyl)-6-(2-hydroxy-2-methylpropyl)-6-phenyl-1,3-oxazinan-2-one]
11β-HSD1 [1]; [5]
  IC50: 0.9 nM
11β-HSD1 [1]; [6]
  IC50: < 100 nM
11β-HSD1 [1]
  inhibition at 0.1 µM: 93.4%
CYP2C9 [2]
  IC50: 20100 nM
11β-HSD1 [3]
  IC50: 4.5 nM
  Shift: 5.0

## C[C@@H](c1ccc(-c2cccnc2)cc1)N1CC[C@](CCO)(c2ccccc2)OC1=O [EXAMPLE 34, (S)-6-(2-hydroxyethyl)-6-phenyl-3-((S)-1-(4-(pyridin-3-yl)phenyl)ethyl)-1,3-oxazinan-2-one]
CYP2C9 [2]
  IC50: 5100 nM

## C[C@@H](c1ccc(-c2ccncc2)cc1)N1CC[C@](CCCO)(c2ccccc2)OC1=O [EXAMPLE 35, (R)-6-(3-hydroxypropyl)-6-phenyl-3-((S)-1-(4-(pyridin-4-yl)phenyl)ethyl)-1,3-oxazinan-2-one]
CYP2C9 [2]
  IC50: 2200 nM

## C[C@@H](c1ccc(-c2cccnc2)cc1)N1CC[C@](CCCO)(c2ccccc2)OC1=O [EXAMPLE 36, (R)-6-(3-hydroxypropyl)-6-phenyl-3-((S)-1-(4-(pyridin-3-yl)phenyl)ethyl)-1,3-oxazinan-2-one]
CYP2C9 [2]
  IC50: 5200 nM

## C[C@@H](c1ccc(-c2cccnc2)cc1)N1CC[C@](CCO)(c2ccc(F)cc2)OC1=O [EXAMPLE 37, (S)-6-(4-fluorophenyl)-6-(2-hydroxyethyl)-3-((S)-1-(4-(pyridin-3-yl)phenyl)ethyl)-1,3-oxazinan-2-one]
11β-HSD1 [1]; [5]
  IC50: 2.5 nM
11β-HSD1 [1]; [6]
  IC50: < 100 nM
11β-HSD1 [1]
  inhibition at 0.1 µM: 94.3%
CYP2C9 [2]
  IC50: 8500 nM
11β-HSD1 [3]
  IC50: 6.1 nM
  Shift: 2.5

## C[C@@H](c1ccc(-c2ccc[n+]([O-])c2)cc1)N1CC[C@](CCCO)(c2ccccc2)OC1=O [EXAMPLE 38, 3-(4-((S)-1-((R)-6-(3-hydroxypropyl)-2-oxo-6-phenyl-1,3-oxazinan-3-yl)ethyl)phenyl)pyridine 1-oxide]
CYP2C9 [2]
  IC50: > 30000 nM

## COc1ccc(-c2ccc([C@H](C)N3CC[C@](CCCO)(c4ccccc4)OC3=O)cc2)cn1 [EXAMPLE 40, (R)-6-(3-hydroxypropyl)-3-((S)-1-(4-(6-methoxypyridin-3-yl)phenyl)ethyl)-6-phenyl-1,3-oxazinan-2-one]
CYP2C9 [2]
  IC50: 10000 nM

## C[C@@H](c1ccc(-c2cncc(F)c2)cc1)N1CC[C@](CCCO)(c2ccccc2)OC1=O [EXAMPLE 49, (R)-3-((S)-1-(4-(5-fluoropyridin-3-yl)phenyl)ethyl)-6-(3-hydroxypropyl)-6-phenyl-1,3-oxazinan-2-one]
CYP2C9 [2]
  IC50: 8400 nM

## C[C@@H](c1ccc(-c2cccnc2)cc1)N1CC[C@](CCNS(C)(=O)=O)(c2ccccc2)OC1=O [EXAMPLE 55, N-(2-((S)-2-oxo-6-phenyl-3-((S)-1-(4-(pyridin-3-yl)phenyl)ethyl)-1,3-oxazinan-6-yl)ethyl)methanesulfonamide]
11β-HSD1 [1]
  inhibition at 0.1 µM: 96.5%
CYP2C9 [2]
  IC50: 14100 nM

## Cc1cc(-c2ccc([C@H](C)N3CC[C@](CCC(N)=O)(c4ccc(F)cc4)OC3=O)cc2)ccn1 [EXAMPLE 78, 3-((R)-6-(4-fluorophenyl)-3-((S)-1-(4-(2-methylpyridin-4-yl)phenyl)ethyl)-2-oxo-1,3-oxazinan-6-yl)propanamide]
11β-HSD1 [1]; [5]
  IC50: 1.8 nM
11β-HSD1 [1]; [6]
  IC50: < 100 nM
11β-HSD1 [1]
  inhibition at 0.1 µM: 95.8%
CYP3A4
  IC50: 7300 nM
11β-HSD1 [3]
  IC50: 19.8 nM

## C[C@@H](c1ccc(-c2ccc(N)nc2)cc1)N1CC[C@](CCCO)(c2ccccc2)OC1=O [EXAMPLE 95, (R)-3-((S)-1-(4-(6-aminopyridin-3-yl)phenyl)ethyl)-6-(3-hydroxypropyl)-6-phenyl-1,3-oxazinan-2-one]
CYP2C9 [2]
  IC50: 2400 nM

## Cc1cc(-c2ccc([C@H](C)N3CC[C@](CCC(N)=O)(c4ccccc4)OC3=O)cc2)ccn1 [EXAMPLE 98, 3-((R)-3-((S)-1-(4-(2-methylpyridin-4-yl)phenyl)ethyl)-2-oxo-6-phenyl-1,3-oxazinan-6-yl)propanamide]
11β-HSD1 [1]; [5]
  IC50: 1.4 nM
11β-HSD1 [1]; [6]
  IC50: < 100 nM
11β-HSD1 [1]
  inhibition at 0.1 µM: 97.8%
CYP3A4
  IC50: 42200 nM
11β-HSD1 [3]
  IC50: 6.3 nM

## Cc1cc(-c2ccc([C@H](C)N3CC[C@](CCN4CCCS4(=O)=O)(c4ccccc4)OC3=O)cc2)ccn1 [EXAMPLE 105, (S)-6-(2-(1,1-dioxo-isothiazolidin-2-yl)ethyl)-3-((S)-1-(4-(2-methylpyridin-4-yl)phenyl)ethyl)-6-phenyl-1,3-oxazinan-2-one]
11β-HSD1 [1]; [5]
  IC50: 19.2 nM
11β-HSD1 [1]; [6]
  IC50: < 100 nM
11β-HSD1 [1]
  inhibition at 0.1 µM: 86.3%
CYP2C9 [2]
  IC50: 2500 nM

## Cc1cc(-c2ccc([C@H](C)N3CC[C@](CCCN4CCCS4(=O)=O)(c4ccccc4)OC3=O)cc2)ccn1 [EXAMPLE 106, (R)-6-(3-(1,1-dioxo-isothiazolidin-2-yl)propyl)-3-((S)-1-(4-(2-methylpyridin-4-yl)phenyl)ethyl)-6-phenyl-1,3-oxazinan-2-one]
11β-HSD1 [1]; [5]
  IC50: 22.7 nM
11β-HSD1 [1]; [6]
  IC50: < 100 nM
11β-HSD1 [1]
  inhibition at 0.1 µM: 79.6%
CYP2C9 [2]
  IC50: 9500 nM

## C[C@@H](c1ccc(-c2ccc(F)cn2)cc1)N1CC[C@](CCCO)(c2ccccc2)OC1=O [EXAMPLE 112, (R)-3-((S)-1-(4-(5-fluoropyridin-2-yl)phenyl)ethyl)-6-(3-hydroxpropyl)-6-Phenyl-1,3-oxazinan-2-one]
11β-HSD1 [1]; [5]
  IC50: 0.5 nM
11β-HSD1 [1]; [6]
  IC50: < 100 nM
11β-HSD1 [1]
  inhibition at 0.1 µM: 95.2%
CYP2C9 [2]
  IC50: 6100 nM

## Cc1cc(-c2ccc([C@H](C)N3CC[C@](CCCO)(c4ccccc4)OC3=O)cc2)cc(C)n1 [EXAMPLE 133, (R)-3-((S)-1-(4-(2,6-dimethylpyridin-4-yl)phenyl)ethyl)-6-(3-hydroxypropyl)-6-phenyl-1,3-oxazinan-2-one]
CYP2C9 [2]
  IC50: > 30000 nM

## Cc1ncc(-c2ccc([C@H](C)N3CC[C@](CCCO)(c4ccc(F)cc4)OC3=O)cc2)cn1 [EXAMPLE 137, (R)-6-(4-fluorophenyl)-6-(3-hydroxypropyl)-3-((S)-1-(4-(2-methylpyrimidin-5-yl)phenyl)ethyl)-1,3-oxazinan-2-one]
CYP2C9 [2]
  IC50: 18400 nM

## Cc1nnc(CC[C@]2(c3ccccc3)CCN([C@@H](C)c3ccc(-c4ccc(C#N)cn4)cc3)C(=O)O2)o1 [EXAMPLE 145, 6-(4-((S)-1-((R)-6-(2-(5-methyl-1,3,4-oxadiazol-2-yl)ethyl)-2-oxo-6-phenyl-1,3-oxazinan-3-yl)ethyl)phenyl)nicotinonitrile]
11β-HSD1 [1]; [5]
  IC50: 32.8 nM
11β-HSD1 [1]; [6]
  IC50: < 100 nM
11β-HSD1 [1]
  inhibition at 0.1 µM: 72.4%
CYP2C9 [2]
  IC50: > 30000 nM

## Cc1nnc(CC[C@]2(c3ccccc3)CCN([C@@H](C)c3ccc(-c4ccc(C#N)cn4)cc3)C(=O)O2)s1 [EXAMPLE 146, 6-(4-((S)-1-((R)-6-(2-(5-methyl-1,3,4-thiadiazol-2-yl)ethyl)-2-oxo-6-phenyl-1,3-oxazinan-3-yl)ethyl)phenyl)nicotinonitrile]
11β-HSD1 [1]; [5]
  IC50: 17.4 nM
11β-HSD1 [1]; [6]
  IC50: < 100 nM
11β-HSD1 [1]
  inhibition at 0.1 µM: 78.9%
CYP2C9 [2]
  IC50: 6100 nM

## C[C@@H](c1ccc(-c2cccnc2)cc1)N1CC[C@](CCCO)(c2ccc(F)cc2)OC1=O [EXAMPLE 197, (R)-6-(4-fluorophenyl)-6-(3-hydroxypropyl)-3-((S)-1-(4-(pyridin-3-yl)phenyl)ethyl)-1,3-oxazinan-2-one]
11β-HSD1 [1]; [5]
  IC50: 1.1 nM
11β-HSD1 [1]; [6]
  IC50: < 100 nM
11β-HSD1 [1]
  inhibition at 0.1 µM: 96.5%
11β-HSD1 [3]
  IC50: 5.7 nM

## C[C@@H](c1ccc(-c2ccc(OCCF)nc2)cc1)N1CC[C@](CC(C)(C)O)(c2ccccc2)OC1=O [EXAMPLE 200, (S)-3-((S)-1-(4-(6-(2-fluoroethoxy)pyridin-3-yl)phenyl)ethyl)-6-(2-hydroxy-2-methylpropyl)-6-phenyl-1,3-oxazinan-2-one]
11β-HSD1 [1]; [5]
  IC50: 0.96 nM
11β-HSD1 [1]; [6]
  IC50: < 100 nM
11β-HSD1 [1]
  inhibition at 0.1 µM: 98.3%
11β-HSD1 [3]
  IC50: 18.3 nM
  Shift: 19.1
